The record followed here is ChEMBL document CHEMBL1125524, “Adenosine A1 antagonists. 2. Structure-activity relationships on diuretic activities and protective effects against acute renal failure” (J Med Chem, 1992).

Test [1] has as its system Rattus norvegicus. Nature of the test: Serum creatinine concentration measured after intraperitoneal administration of 10 mg/kg of compound to rats(vehicle 4.98+/-0.08). In kind it is functional.
The test system of test [2] is Rattus norvegicus. Briefly: Effect on urinary excretion potassium and sodium after oral administration of 25 mg/kg to rats(potassium and sodium excretion in control rat is […]+/-[…]). In kind it is functional, Urine.
Test [3] deals with Rattus norvegicus. Briefly: Ratio of urinary excretion value (Na+ concentration) in treated rats to that in control rats, at a peroral dose of 25 mg/Kg. Type of test: functional, Urine.
The subject of test [4] is Rattus norvegicus. Briefly: Percent inhibition of serum creatinine by the compound given as ratio of Cr value in treated to vehicle treated ones after intraperitoneal administration of 10 mg/kg of compound to rats(vehicle 4.98+/-0.08). In kind it is functional. The following applies: ip.
Test [5] has as its system Rattus norvegicus. Nature of the test: Ratio of urinary excretion value (urinary volume) in treated rats to that in control rats, at a peroral dose of 25 mg/Kg. In kind it is functional, Urine.
Test [6] has as its system Rattus norvegicus. Nature of the test: Percent inhibition of Urea nitrogen by the compound given as ratio of UN value in treated to vehicle treated ones after intraperitoneal administration of 10 mg/kg of compound to rats(vehicle 150.7+/-3.4). Type of test: functional. The following applies: ip.
The test system of test [7] is Rattus norvegicus. Nature of the test: Oral diuretic activity was measured after oral administration of 25 mg/kg to rats(control volume is 0.89+/-0.06). In kind it is functional, Urine.
Test [8] concerns Rattus norvegicus. Nature of the test: Ratio of sodium ion/potassium ion concentration in treated rats to that in control rats, at a peroral dose of 25 mg/Kg. In kind it is functional.
The test system of test [9] is Rattus norvegicus. Briefly: Ratio of urinary excretion value (Na+ concentration) in treated rats to that in control rats, at a peroral dose of 6.25 mg/Kg. Type of test: functional, Urine.
Another test deals with Adenosine A2 receptor (Rattus norvegicus, UniProt P29276+P30543).
The test system of test [10] is Rattus norvegicus. Nature of the test: Ratio of urinary excretion value (urinary volume) in treated rats to that in control rats, at a peroral dose of 6.25 mg/Kg. In kind it is functional, Urine.
The test system of test [11] is Rattus norvegicus. Briefly: Urea nitrogen concentration measured after intraperitoneal administration of 10 mg/kg of compound to rats(vehicle 150.7+/-3.4). In kind it is functional.
Test [12] relates to Rattus norvegicus. Briefly: Serum creatinine concentration measured after intraperitoneal administration of 1 mg/kg of compound to rats(vehicle 3.06+/-0.68). In kind it is functional.
Test [13] is filed under the species Rattus norvegicus. In kind it is functional, Urine. Conditions: dose 1.6 mg/kg; route oral.
The subject of test [14] is Rattus norvegicus. Nature of the test: Ratio of sodium ion/potassium ion concentration in treated rats to that in control rats, at a peroral dose of 1.6 mg/Kg. Type of test: functional.
Test [15] relates to Rattus norvegicus. Nature of the test: Ratio of urinary excretion value (urinary volume) in treated rats to that in control rats, at a peroral dose of 1.6 mg/Kg. Type of test: functional, Urine.
The test system of test [16] is Rattus norvegicus. Briefly: Percent inhibition of serum creatinine by the compound given as ratio of Cr value in treated to vehicle treated ones after intraperitoneal administration of 10 mg/kg of compound to rats(vehicle 2.13+/-0.27). Type of test: functional. Conditions: ip.
In test [17] the test system is Rattus norvegicus. Nature of the test: Ratio of urinary excretion value (Na+ concentration) in treated rats to that in control rats, at a peroral dose of 1.6 mg/Kg. Type of test: functional, Urine.
Test [18] has as its system Rattus norvegicus. Nature of the test: Urea nitrogen concentration measured after intraperitoneal administration of 1 mg/kg of compound to rats(vehicle 120.9+/-23.3). Type of test: functional.
Test [19] deals with Rattus norvegicus. Nature of the test: Serum creatinine concentration measured after intraperitoneal administration of 10 mg/kg of compound to rats(vehicle 2.13+/-0.27). In kind it is functional.
Test [20] deals with Rattus norvegicus. Briefly: Effect on urinary excretion potassium and sodium after oral administration of 1.6 mg/kg to rats(potassium and sodium excretion in control rat is 0.173+/-0.016). In kind it is functional, Urine.
Test [21] relates to Rattus norvegicus. Nature of the test: Percent inhibition of serum creatinine by the compound given as ratio of Cr value in treated to vehicle treated ones after intraperitoneal administration of 1 mg/kg of compound to rats(vehicle 3.06+/-0.68). Type of test: functional. The following applies: ip.
The subject of test [22] is Rattus norvegicus. Briefly: Oral diuretic activity was measured after oral administration of 25 mg/kg to rats(control volume is 0.96+/-0.20). In kind it is functional, Urine.
Test [23] relates to Rattus norvegicus. Nature of the test: Effect on urinary excretion potassium and sodium after oral administration of 25 mg/kg to rats(potassium and sodium excretion in control rat is 0.146+/-0.017). Type of test: functional, Urine.
For test [24], the system named is Rattus norvegicus. Nature of the test: Percent inhibition of Urea nitrogen by the compound given as ratio of UN value in treated to vehicle treated ones after intraperitoneal administration of 1 mg/kg of compound to rats(vehicle 120.9+/-23.3). Conditions: ip. In kind it is functional.
Test [25] relates to Rattus norvegicus. Briefly: Serum creatinine concentration measured after intraperitoneal administration of 10 mg/kg of compound to rats(vehicle 3.93+/-0.45). Type of test: functional.
In test [26] the test system is Rattus norvegicus. Briefly: Urea nitrogen concentration measured after intraperitoneal administration of 1 mg/kg of compound to rats(vehicle 105.2+/-14.9). Type of test: functional.
The subject of test [27] is Rattus norvegicus. Briefly: Urea nitrogen concentration measured after intraperitoneal administration of 10 mg/kg of compound to rats(vehicle 129.1+/-14.5). In kind it is functional.
For test [28], the system named is Rattus norvegicus. Nature of the test: Oral diuretic activity was measured after oral administration of 1.6 mg/kg to rats(control volume is 0.96+/-0.09). In kind it is functional, Urine.
Test [29] has as its system Rattus norvegicus. Nature of the test: Serum creatinine concentration measured after intraperitoneal administration of 1 mg/kg of compound to rats(vehicle 3.62+/-0.52). In kind it is functional.
The subject of test [30] is Rattus norvegicus. Briefly: Effect on urinary excretion potassium and sodium after oral administration of 1.6 mg/kg to rats(potassium and sodium excretion in control rat is 0.147+/-0.015). In kind it is functional, Urine.
Another test addresses T1, Adenosine receptor A1 (Cavia porcellus, UniProt P47745).
T1 sequence (P47745 whole entry): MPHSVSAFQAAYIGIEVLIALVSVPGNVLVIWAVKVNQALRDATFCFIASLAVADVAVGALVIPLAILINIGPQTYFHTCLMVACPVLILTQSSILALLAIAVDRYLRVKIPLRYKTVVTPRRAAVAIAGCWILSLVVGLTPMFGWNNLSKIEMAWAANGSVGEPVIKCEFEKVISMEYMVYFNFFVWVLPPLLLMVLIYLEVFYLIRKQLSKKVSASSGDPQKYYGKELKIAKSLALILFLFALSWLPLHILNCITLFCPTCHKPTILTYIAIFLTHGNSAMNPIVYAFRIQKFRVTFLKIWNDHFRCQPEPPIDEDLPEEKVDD

Bounds are passed on as bounds.

Description for Adenosine receptor A1: Binding affinity against adenosine A1 receptor in guinea pig forebrain membranes using N6-[3H]cyclohexyladenosine as radioligand

In general, inhibition in vivo refers to the percentage by which the read-out fell short of the control. By Ki is commonly meant the equilibrium dissociation constant of an inhibitor or competing ligand from its target. With `CCCn1c(=O)c2c(nc(C(C3CC3)C3CC3)n2CC)n(CCC)c1=O`, the Cr in the test on Rattus norvegicus [1] was 4.5 mg/dL. In the test with Rattus norvegicus [2], this compound showed a Na of 0.348 m equiv 6hr-1 100g-1. The T/C is recorded as 2.14 in the test with Rattus norvegicus [3], 2.42 in the test with Rattus norvegicus [5], 1.24 in the test on Rattus norvegicus [9] and 1.19 in the test with Rattus norvegicus [10]. The inhibition in vivo at 10 mg/kg in the test on Rattus norvegicus [4] was determined as 10%; in the test on Rattus norvegicus [6] it was 5%. This compound also had a Urine volume in the test with Rattus norvegicus [7] of 2.15 ml 6hr-1 100g-1. Further, the “Na+/K+” value with Rattus norvegicus [8] turned out to be 1.51. This compound showed a Ki at Adenosine A2 receptor of 14000 nM. Further, in the test on Rattus norvegicus [11], the UN stood at 142.7 mg/dL.
`CCCn1c(=O)c2nc(C3C(C)(C)CCC3(C)C)[nH]c2n(CCC)c1=O`: the Cr was determined as 3.03 mg/dL in the test on Rattus norvegicus [12] and 1.43 mg/dL in the test on Rattus norvegicus [19]. Besides, the figures for the Urine volume in the test listed under Rattus norvegicus [13] and with Rattus norvegicus [22] were 1.5 ml 6hr-1 100g-1 and 1.34 ml 6hr-1 100g-1, respectively. Further, the “Na+/K+” value with Rattus norvegicus [14] was found to be 1.12; in the test with Rattus norvegicus [8], 1.21. Besides, the T/C is recorded as 1.42 in the test on Rattus norvegicus [15], 1.18 in the test with Rattus norvegicus [3], 1.23 in the test with Rattus norvegicus [17] and 1.4 with Rattus norvegicus [5]. Also, the inhibition in vivo at 10 mg/kg with Rattus norvegicus [16] amounted to 33%. Also, the UN in the test with Rattus norvegicus [18] turned out to be 113.4 mg/dL. Further, the Na with Rattus norvegicus [20] came to 0.213 m equiv 6hr-1 100g-1; in the test on Rattus norvegicus [23], 0.172 m equiv 6hr-1 100g-1. The inhibition in vivo at 1 mg/kg turned out to be 1% with Rattus norvegicus [21] and 6% in the test on Rattus norvegicus [24]. For the same compound, the Ki at Adenosine A2 receptor is recorded as greater than 100000 nM.
On to `Cn1c(=O)c2nc(C(C3CC3)C3CC3)[nH]c2n(C)c1=O`, for which the Cr with Rattus norvegicus [25] was 1.78 mg/dL; in the test with Rattus norvegicus [29], 4.1 mg/dL. Besides, the UN was 121.4 mg/dL in the test with Rattus norvegicus [26] and 57.2 mg/dL with Rattus norvegicus [27]. Besides, the “Na+/K+” value in the test with Rattus norvegicus [14] is recorded as 1.18. Also, the T/C in the test on Rattus norvegicus [15] is 0.91; with Rattus norvegicus [17] it was 1.24. In addition, the Urine volume in the test with Rattus norvegicus [28] is recorded as 0.87 ml 6hr-1 100g-1. Moreover, the affinity at Adenosine A2 receptor corresponds to a Ki of 2700 nM. For the same compound, the Na in the test with Rattus norvegicus [30] turned out to be 0.183 m equiv 6hr-1 100g-1.
Take `CCCn1c(=O)c2[nH]c(CC3CCCCC3)nc2n(CCC)c1=O`: on Adenosine receptor A1, the inhibitory constant (Ki) amounted to 11 nM.
